# Test results: PubChem BioAssay AID1963421 (Molecular Pharmacology Branch, DTP, NCI, 2024)
# Several values for one entry are separate records, joined by “and”; a condition that tells them apart may be missing. Equal values may be shown once.
# Tested on: 519858-162-T-J1-PDC complex spheroid growth, % test/control
# Assay: Anticancer human tumor 519858-162-T-J1-PDC patient-derived colon adenocarcinoma cell line growth inhibition [Asc]
# Conditions: for viability, T/C: stronger effect = lower value
# Method: Multicellular complex tumor spheroid response to apoptosis pathway targeting inhibitors Alrizomadlin, Pelcitoclax, and Dasminapant in combination with a variety of drugs and investigational agents in selected tumor cell lines
# The MDM2 inhibitor alrizomadlin, the Bcl-2/Bcl-xL inhibitor pelcitoclax, and the IAPs inhibitor dasminapant were evaluated both individually and in combination with standard of care and investigational anticancer small molecules within a complex spheroid model of solid tumors. . Complex spheroids include a stromal component modeled by human endothelial cells (HUVEC) and fibroblasts modeled by human mesenchymal stem cells (MSCs). The concentration ranges selected for each drug and investigational agent were based upon clinically achievable concentrations if the clinical Cmax of the agent was known.
# Compounds. The drugs and investigational agents: alrizomadlin (APG-115; NSC831270), pelcitoclax (APG-1252; NSC835773), dasminapant (APG-1387;NSC834197), TAK-243 (NSC785004), copanlisib (NSC809693), olaparib (NSC753686), talazoparib (NSC767125), cobimetinib (NSC 768068), eltanexor (KPT-8602, NSC 794443), abemaciclib (NSC 768073), sotorasib (NSC818433), adagrasib (NSC 831453), MRTX-1133 (NSC 836407), Iadademestat (ORY1001, NSC 806812), and RMC-4630 (NSC839698), were obtained from the NCI Developmental Therapeutics Program Chemical Repository. The FDA-approved anticancer drug set is available from the Developmental Therapeutics Program at https://dtp.cancer.gov/organization/dscb/obtaining/available plates.htm. […] The stock solutions were prepared in dimethyl sulfoxide (DMSO, Sigma-Aldrich, St. Louis, MO, cat. D2650) at 800-fold the tested concentration and stored at -70 degrees C prior to their use. All drugs and investigational agents were tested over a range starting from a high concentration at or near the clinical Cmax and decreasing in half-log increments. If the clinical Cmax for an agent had not been determined, the highest concentration tested was 10 microM.
# The patient-derived cancer (PDC) cell lines include five colon adenocarcinomas: 186277-243-T-J2-PDC, 616215-338-R-J1-PDC, 439559-082-T-J2-PDC, 463943-066-T-J2-PDC, and 519858-162-T-J1-PDC; three pancreatic carcinomas: 323965-272-R-J2-PDC, 521955-158-R6-J3-PDC, and 521955-158-R2-J5-PDC; two uterine sarcomas: 327498-152-R-J2-PDC and 993429-296-R-J1-PDC; two rhabdomyosarcomas: 755483-174-R-J1-PDC and 772245-204-R-J1-PDC; two soft tissue sarcomas: 126254-015-R-J1-PDC and 494315-158-R-J1-PDC; two malignant fibrous histiocytomas: 317291-083-R-J1-PDC and 596521-263-R-J1-PDC; two breast carcinomas: 171881-019-R-J1-PDC and 885512-296-R-J2-PDC; and one ovarian carcinoma: 6556581-035-R-J-PDC were obtained from the NCI PDMR, (https://pdmr.cancer.gov). The established cell lines HSSY-2 synovial sarcoma (RRID:CVCL 8719), SYO-1 synovial sarcoma (RRID:CVCL_7146), MPNST malignant peripheral neural sheath tumor were obtained from the Sloan Kettering Institute. The following established cell lines were purchased from the American Type Culture Collection (ATCC, Manassas, VA), Sor the received from the NCI repository:, PANC-1 pancreatic carcinoma (CRL-1469, RRID:CVCL_0480), OVCAR-5 ovarian carcinoma (RRID:CVCL_1628), OVCAR-8 ovarian carcinoma (RRID:CVCL_1629), , MCF-7 breast carcinoma (CRL-12584, RRID:CVCL_0031), MDA-MB-231 breast carcinoma (CRL-12532, RRID:CVCL_0062), NCI-H1876 small cell lung carcinoma (CRL-5902, RRID:CVCL_1503), NCI-H510A small cell lung carcinoma (HTB-184, RRID:CVCL_1565), NCI-H1417 (CRL-5869, RRID:CVCL_1469), and NCI-H196 small cell lung carcinoma (CRL-5823, RRID:CVCL_1509). Dr. Peter Houghton (Greehey Children's Cancer Research Institute, University of Texas Health Science Center, San Antonio, TX) provided Rh-18 rhabdomyosarcoma (RRID:CVCL_1659). Pooled donor human umbilical vein endothelial cells (HUVEC, Lonza, cat. CC-2519) and human mesenchymal stem cells (hMSC, Lonza, cat. PT-2501) were purchased from Lonza (Walkersville, MD).
# Cell Culture. […]
# 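Further: seven day drug exposure begun three days after spheroid seeding.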
# 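Wherever viability, T/C is given: 100% = DMSO vehicle wells and lower values mean less viable spheroid.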
smiles,measurement,setting,value
C=C(F)C(=O)N1CCN(c2nc(OCC3CCCN3C)nc3c2CCN(c2cccc4cccc(Cl)c24)C3)CC1CC#N (centres undefined),"viability, T/C",compound 0.0316 µM,95.4% and 95.7% and 94%
same,"viability, T/C",compound 0.1 µM,109% and 79.9% and 106%
same,"viability, T/C",compound 0.316 µM,97% and 96.7% and 84.9%
same,"viability, T/C",compound 1 µM,89.8% and 92.8% and 78.1%
same,"viability, T/C",compound 3.16 µM,94.5% and 80.9% and 93.3%
same,"viability, T/C",compound 10 µM,97.4% and 72.3% and 43%
same,IC50,curve of compound,> 10000 nM and 8440 nM
COc1c(OCCCN2CCOCC2)ccc2c3n(c(=NC(=O)c4cnc(N)nc4)nc12)CCN3 + CNC(C)C(=O)NC1CN(S(=O)(=O)c2cccc(S(=O)(=O)N3CCC4CCC(C(=O)NC(c5ccccc5)c5ccccc5)N4C(=O)C(NC(=O)C(C)NC)C3)c2)CCC2CCC(C(=O)NC(c3ccccc3)c3ccccc3)N2C1=O,IC50,"curve of first compound, second compound 0.00316 µM",320 nM
same,IC50,"curve of first compound, second compound 0.01 µM",162 nM
same,IC50,"curve of first compound, second compound 0.0316 µM",156 nM
same,IC50,"curve of first compound, second compound 0.1 µM",132 nM
same,IC50,"curve of first compound, second compound 0.316 µM",237 nM
same,IC50,"curve of first compound, second compound 1 µM",259 nM
same,"viability, T/C","second compound 0.00316 µM, first compound 0.00316 µM",78.1%
same,"viability, T/C","second compound 0.00316 µM, first compound 0.01 µM",61%
same,"viability, T/C","second compound 0.00316 µM, first compound 0.0316 µM",68.8%
same,"viability, T/C","second compound 0.00316 µM, first compound 0.1 µM",65.4%
same,"viability, T/C","second compound 0.00316 µM, first compound 0.316 µM",48.8%
same,"viability, T/C","second compound 0.00316 µM, first compound 1 µM",27.9%
same,"viability, T/C","second compound 0.01 µM, first compound 0.00316 µM",83.3%
same,"viability, T/C","second compound 0.01 µM, first compound 0.01 µM",89.9%
same,"viability, T/C","second compound 0.01 µM, first compound 0.0316 µM",85.4%
same,"viability, T/C","second compound 0.01 µM, first compound 0.1 µM",53.9%
same,"viability, T/C","second compound 0.01 µM, first compound 0.316 µM",53.1%
same,"viability, T/C","second compound 0.01 µM, first compound 1 µM",34.4%
same,"viability, T/C","second compound 0.0316 µM, first compound 0.00316 µM",82.7%
same,"viability, T/C","second compound 0.0316 µM, first compound 0.01 µM",78.9%
same,"viability, T/C","second compound 0.0316 µM, first compound 0.0316 µM",67%
same,"viability, T/C","second compound 0.0316 µM, first compound 0.1 µM",54.9%
same,"viability, T/C","second compound 0.0316 µM, first compound 0.316 µM",42.1%
same,"viability, T/C","second compound 0.0316 µM, first compound 1 µM",27.6%
same,"viability, T/C","second compound 0.1 µM, first compound 0.00316 µM",86.5%
same,"viability, T/C","second compound 0.1 µM, first compound 0.01 µM",68.2%
same,"viability, T/C","second compound 0.1 µM, first compound 0.0316 µM",56.9%
same,"viability, T/C","second compound 0.1 µM, first compound 0.1 µM",62.5%
same,"viability, T/C","second compound 0.1 µM, first compound 0.316 µM",37.1%
same,"viability, T/C","second compound 0.1 µM, first compound 1 µM",39.1%
same,"viability, T/C","second compound 0.316 µM, first compound 0.00316 µM",72.5%
same,"viability, T/C","second compound 0.316 µM, first compound 0.01 µM",88.5%
same,"viability, T/C","second compound 0.316 µM, first compound 0.0316 µM",78.3%
same,"viability, T/C","second compound 0.316 µM, first compound 0.1 µM",65.9%
same,"viability, T/C","second compound 0.316 µM, first compound 0.316 µM",45.1%
same,"viability, T/C","second compound 0.316 µM, first compound 1 µM",36.4%
same,"viability, T/C","second compound 1 µM, first compound 0.00316 µM",84.4%
same,"viability, T/C","second compound 1 µM, first compound 0.01 µM",64.9%
same,"viability, T/C","second compound 1 µM, first compound 0.0316 µM",83.7%
same,"viability, T/C","second compound 1 µM, first compound 0.1 µM",48.3%
same,"viability, T/C","second compound 1 µM, first compound 0.316 µM",53.6%
same,"viability, T/C","second compound 1 µM, first compound 1 µM",32%
